Results reported in patent publication US20150296790A1, “SILICON-CONTAINING COMPOUND AQUEOUS SOLUTION AND ANTIBACTERIAL/ANTIVIRAL AGENT INCLUDING SAID SOLUTION” (JEX CO., LTD., priority 2012, published 2015).

Test: Stability over time (three-month storage tests, visual)
Format: physicochemical
Settings: purified water

## CCCCCCCCCCCCCCCCCC[N+](C)(C)CCC[Si](OCC)(OCC)OCC.[Cl-] [Compound E, Octadecyl dimethyl(3-triethoxysilylpropyl)ammonium chloride]
DEXYPEARL 1 w/w %, Compound E 0.1 w/w %
  Change Over 3 Months (Accelerated Test at 40° C., Cold Test at 5° C., Ambient Test at 25° C.): Not clear but stable
DEXYPEARL 2 w/w %, Compound E 0.1 w/w %
  Change Over 3 Months (Accelerated Test at 40° C., Cold Test at 5° C., Ambient Test at 25° C.): Not clear but stable
DEXYPEARL 3 w/w %, Compound E 0.1 w/w %
  Change Over 3 Months (Accelerated Test at 40° C., Cold Test at 5° C., Ambient Test at 25° C.): Not clear but stable
DEXYPEARL 4 w/w %, Compound E 0.1 w/w %
  Change Over 3 Months (Accelerated Test at 40° C., Cold Test at 5° C., Ambient Test at 25° C.): Not clear but stable
DEXYPEARL 5 w/w %, Compound E 0.1 w/w %
  Change Over 3 Months (Accelerated Test at 40° C., Cold Test at 5° C., Ambient Test at 25° C.): Not clear but stable
DEXYPEARL 6 w/w %, Compound E 0.1 w/w %
  Change Over 3 Months (Accelerated Test at 40° C., Cold Test at 5° C., Ambient Test at 25° C.): Not clear but stable
DEXYPEARL 7 w/w %, Compound E 0.1 w/w %
  Change Over 3 Months (Accelerated Test at 40° C., Cold Test at 5° C., Ambient Test at 25° C.): Not clear but stable
DEXYPEARL 8 w/w %, Compound E 0.1 w/w %
  Change Over 3 Months (Accelerated Test at 40° C., Cold Test at 5° C., Ambient Test at 25° C.): Not clear but stable
DEXYPEARL 9 w/w %, Compound E 0.1 w/w %
  Change Over 3 Months (Accelerated Test at 40° C., Cold Test at 5° C., Ambient Test at 25° C.): Not clear but stable
DEXYPEARL 10 w/w %, Compound E 0.1 w/w %
  Change Over 3 Months (Accelerated Test at 40° C., Cold Test at 5° C., Ambient Test at 25° C.): Not clear but stable
DEXYPEARL 20 w/w %, Compound E 0.1 w/w %
  Change Over 3 Months (Accelerated Test at 40° C., Cold Test at 5° C., Ambient Test at 25° C.): Precipitated
DEXYPEARL 30 w/w %, Compound E 0.1 w/w %
  Change Over 3 Months (Accelerated Test at 40° C., Cold Test at 5° C., Ambient Test at 25° C.): Precipitated
DEXYPEARL 40 w/w %, Compound E 0.1 w/w %
  Change Over 3 Months (Accelerated Test at 40° C., Cold Test at 5° C., Ambient Test at 25° C.): Precipitated
ISOELEAT 1 w/w %, Compound E 0.1 w/w %
  Change Over 3 Months (Accelerated Test at 40° C., Cold Test at 5° C., Ambient Test at 25° C.): Not clear but stable
ISOELEAT 2 w/w %, Compound E 0.1 w/w %
  Change Over 3 Months (Accelerated Test at 40° C., Cold Test at 5° C., Ambient Test at 25° C.): Not clear but stable
ISOELEAT 3 w/w %, Compound E 0.1 w/w %
  Change Over 3 Months (Accelerated Test at 40° C., Cold Test at 5° C., Ambient Test at 25° C.): Not clear but stable
ISOELEAT 4 w/w %, Compound E 0.1 w/w %
  Change Over 3 Months (Accelerated Test at 40° C., Cold Test at 5° C., Ambient Test at 25° C.): Not clear but stable
ISOELEAT 5 w/w %, Compound E 0.1 w/w %
  Change Over 3 Months (Accelerated Test at 40° C., Cold Test at 5° C., Ambient Test at 25° C.): Not clear but stable
ISOELEAT 6 w/w %, Compound E 0.1 w/w %
  Change Over 3 Months (Accelerated Test at 40° C., Cold Test at 5° C., Ambient Test at 25° C.): Not clear but stable
ISOELEAT 7 w/w %, Compound E 0.1 w/w %
  Change Over 3 Months (Accelerated Test at 40° C., Cold Test at 5° C., Ambient Test at 25° C.): Not clear but stable
ISOELEAT 8 w/w %, Compound E 0.1 w/w %
  Change Over 3 Months (Accelerated Test at 40° C., Cold Test at 5° C., Ambient Test at 25° C.): Not clear but stable
ISOELEAT 9 w/w %, Compound E 0.1 w/w %
  Change Over 3 Months (Accelerated Test at 40° C., Cold Test at 5° C., Ambient Test at 25° C.): Not clear but stable
ISOELEAT 10 w/w %, Compound E 0.1 w/w %
  Change Over 3 Months (Accelerated Test at 40° C., Cold Test at 5° C., Ambient Test at 25° C.): Precipitated
ISOELEAT 20 w/w %, Compound E 0.1 w/w %
  Change Over 3 Months (Accelerated Test at 40° C., Cold Test at 5° C., Ambient Test at 25° C.): Precipitated
ISOELEAT 30 w/w %, Compound E 0.1 w/w %
  Change Over 3 Months (Accelerated Test at 40° C., Cold Test at 5° C., Ambient Test at 25° C.): Precipitated
ISOELEAT 40 w/w %, Compound E 0.1 w/w %
  Change Over 3 Months (Accelerated Test at 40° C., Cold Test at 5° C., Ambient Test at 25° C.): Precipitated
ISOELEAT 50 w/w %, Compound E 0.1 w/w %
  Change Over 3 Months (Accelerated Test at 40° C., Cold Test at 5° C., Ambient Test at 25° C.): Precipitated
α-CD 1 w/w %, Compound E 0.1 w/w %
  Change Over 3 Months (Accelerated Test at 40° C., Cold Test at 5° C., Ambient Test at 25° C.): Stable
α-CD 1 w/w %, Compound E 0.2 w/w %
  Change Over 3 Months (Accelerated Test at 40° C., Cold Test at 5° C., Ambient Test at 25° C.): Stable
α-CD 1 w/w %, Compound E 0.3 w/w %
  Change Over 3 Months (Accelerated Test at 40° C., Cold Test at 5° C., Ambient Test at 25° C.): Stable
α-CD 1 w/w %, Compound E 0.4 w/w %
  Change Over 3 Months (Accelerated Test at 40° C., Cold Test at 5° C., Ambient Test at 25° C.): Stable
α-CD 1 w/w %, Compound E 0.5 w/w %
  Change Over 3 Months (Accelerated Test at 40° C., Cold Test at 5° C., Ambient Test at 25° C.): Stable
α-CD 1 w/w %, Compound E 0.6 w/w %
  Change Over 3 Months (Accelerated Test at 40° C., Cold Test at 5° C., Ambient Test at 25° C.): Stable
α-CD 1 w/w %, Compound E 0.7 w/w %
  Change Over 3 Months (Accelerated Test at 40° C., Cold Test at 5° C., Ambient Test at 25° C.): Stable
